According to the NIST ThermoML archive (doi:10.1016/j.tca.2018.10.027):
“And” between values parts separate entries of the source, which are not always exact repeats. Equal entries are not always repeated.

Details: Liquid, Calculated from knudsen effusion weight loss

[Ag+].[Br-] [silver bromide]
Details	vapor or sublimation pressure
829.9 K	0.000109 kPa [middle of 4 runs]
849.9 K	0.000184 kPa [middle of 4 runs]
869.9 K	0.000316 kPa [middle of 4 runs]
889.9 K	0.00057 kPa and 0.000464 kPa and 0.000529 kPa
890 K	0.000602 kPa
909.9 K	0.000855 kPa and 0.000958 kPa and 0.000842 kPa
910 K	0.001143 kPa
929.9 K	0.001712 kPa [middle of 4 runs]
